In patent US20210369677A1, “SMALL MOLECULE ACTIVATORS OF POLYCYSTIN-2 (PKD2) AND USES THEREOF” (Northwestern University, priority 2020, published 2021):

Biological target: T1, polycystin-2 (Homo sapiens, UniProt Q13563, C331S/C344S)
T1 construct: expressed in transfected cells
T1 sequence (Q13563 1-968 C331S/C344S): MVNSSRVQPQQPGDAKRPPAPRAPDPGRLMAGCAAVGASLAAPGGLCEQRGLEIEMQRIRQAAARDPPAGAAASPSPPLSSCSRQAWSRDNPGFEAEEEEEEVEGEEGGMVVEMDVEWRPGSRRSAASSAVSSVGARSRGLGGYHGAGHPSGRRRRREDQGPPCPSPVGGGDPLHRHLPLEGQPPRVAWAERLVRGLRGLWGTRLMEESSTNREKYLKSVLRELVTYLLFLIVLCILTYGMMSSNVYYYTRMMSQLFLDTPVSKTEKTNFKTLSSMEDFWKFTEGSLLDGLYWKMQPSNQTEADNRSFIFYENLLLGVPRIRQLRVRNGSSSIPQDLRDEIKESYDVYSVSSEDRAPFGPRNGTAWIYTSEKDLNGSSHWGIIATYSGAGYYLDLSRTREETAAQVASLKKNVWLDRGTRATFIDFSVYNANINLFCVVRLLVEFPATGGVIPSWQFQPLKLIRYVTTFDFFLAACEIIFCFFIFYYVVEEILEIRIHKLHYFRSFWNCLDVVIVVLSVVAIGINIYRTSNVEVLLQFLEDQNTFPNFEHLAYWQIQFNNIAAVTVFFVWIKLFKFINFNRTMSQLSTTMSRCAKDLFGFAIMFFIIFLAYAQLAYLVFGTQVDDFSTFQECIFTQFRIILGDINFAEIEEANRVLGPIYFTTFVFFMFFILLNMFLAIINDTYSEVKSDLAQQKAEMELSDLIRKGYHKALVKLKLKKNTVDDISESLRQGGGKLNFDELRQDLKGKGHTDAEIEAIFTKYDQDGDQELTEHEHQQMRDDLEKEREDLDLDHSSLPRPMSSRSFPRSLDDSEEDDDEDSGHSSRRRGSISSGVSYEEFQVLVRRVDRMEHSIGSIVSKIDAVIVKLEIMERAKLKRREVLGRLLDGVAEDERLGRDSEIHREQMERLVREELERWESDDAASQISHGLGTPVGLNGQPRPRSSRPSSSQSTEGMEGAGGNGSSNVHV
Assay type: cell-based
Conditions: C331S:C334S double mutant

For `[Gd]` [gadolinium], the “Effect on C331S:C334S channel cilia current” value was “retaining its sensitivity to pore block”.
